Assay results taken from patent US5637619A, “Antitumor 2-aminocarbonyl-1, 2-bis(methylsulfonyl)-1-(substituted)hydrazines” (Yale University, priority 1995, dated 1997).
Values joined by “and” are separate entries in the source; they are usually repeats but may differ in a detail not shown here. Identical values can stand only once.

How the values were obtained:
[1] = tested on: M109 lung carcinoma; test: M109 lung carcinoma, ip implanted; format: in vivo, BALB/c mice; settings: 50 mg/kg/injection, q4d × 3, ip, 10% DMSO in saline; highest dose tested
Method: (§1) The M5076 reticulum cell sarcoma was passaged biweekly by sc transfer of tumor fragments into C57BL/6 mice, and the M109 lung carcinoma was similarly passaged in BALB/c mice. The LX-1 human lung carcinoma was passaged sc every two to three weeks in BALB/c-background athymic (nu/nu) mice. For use in these systems, compound III was dissolved in: (a) 100% DMSO and administered by iv injection in a fixed volume of 10 microliters; or (b) DMSO diluted with saline to a final concentration of 10% DMSO and administered iv in a volume of 0.01 milliliter/g of body weight. […] Mitomycin C and cyclophosphamide were dissolved and administered in saline. BCNU and MeCCNU were dissolved in ethanol and diluted 1:9 (v/v) with water prior to administration.
Five mice per group were employed in experiments with the B16F10 melanoma, and 8 mice per group with the M5076 sarcoma, the M109 carcinoma and the LX-1 carcinoma. […] Therapeutic results are presented in terms of: (a) increases in lifespan reflected by the relative median survival time (MST) of treated versus control groups (i.e., %T/C values), and by long-term survivors, and (b) primary tumor growth inhibition (i.e., T-C values) determined by calculating the relative median times for treated (T) and control untreated (C) mice to grow tumors of a 0.5 g size for the LX-1 carcinoma or a 1 g size for the murine neoplasms. […]

[2] = tested on: M109 lung carcinoma; test: M109 lung carcinoma, sc implanted; format: in vivo, BALB/c mice
Method: as §1
(§2) Five mice per group were employed in experiments with the B16F10 melanoma, and 8 mice per group with the M5076 sarcoma, the M109 carcinoma and the LX-1 carcinoma. A minimum of two dose levels per compound were included in each evaluation and drug therapy was initiated 24 h after tumor implantation for the M5076 sarcoma and M109 carcinoma. In the LX-1 experiment, tumor bearing mice were selected and sorted into treatment and control groups on day 6 post-tumor implant such that all tumor weights ranged from 50-100 mg and median tumor weights per group were reasonably similar. Therapeutic results are presented in terms of: (a) increases in lifespan reflected by the relative median survival time (MST) of treated versus control groups (i.e., %T/C values), and by long-term survivors, and (b) primary tumor growth inhibition (i.e., T-C values) determined by calculating the relative median times for treated (T) and control untreated (C) mice to grow tumors of a 0.5 g size for the LX-1 carcinoma or a 1 g size for the murine neoplasms. Tumor weights were interchangeable with tumor size on the basis of 1 mm^3 =1 mg. […] The activity criterion for tumor inhibition was a delay in tumor growth consistent with one log10 cell kill (LCK). The absolute T-C value needed to attain this level of efficacy varied from experiment to experiment and depended upon the tumor volume doubling time of the control mice in each study. Treated mice dying prior to day 10 in the ip M109 experiment, or dying before their tumors achieved 0.5 g for the LX-1 carcinoma or 1 g in size for all other sc tumor models, were considered to have died from drug toxicity. Groups of mice with more than one death due to drug toxicity were not used in the evaluation of antitumor efficacy. Statistical evaluations of data were performed using Gehan's generalized Wilcoxan test (Gehan, Biometrika, 1965, 52, 203-233).
Compound III was also evaluated against the M109 lung carcinoma implanted subcutaneously (sc). In the initial test using this model, a dose of 50 mg/kg per injection of this compound was administered intravenously (iv) in 10% DMSO in saline every fourth day for a total of three injections. […] Mitomycin C, used as a reference drug, produced a maximum %T/C of 103 and a delay in tumor growth of 10 days (data not shown). A subsequent evaluation of compound III was performed using four different doses on a slightly different schedule, i.e., 24, 32, 48 and 64 mg/kg administered every third day for four total injections, and two vehicles, 10% DMSO in saline and 100% DMSO. […] Cyclophosphamide and mitomycin C were included as reference drugs in the last experiment. The former compound produced a maximum %T/C of 143 and a delay in tumor growth of 8.8 days, while mitomycin C produced a maximum %T/C of 134 and a T-C value of 9.3 days (data not shown). As reported earlier, compound X achieved a maximum %T/C of 136 and a maximum T-C value of 14.5 days against this tumor (Shyam, et al., J. Med. Chem., 1993, 36, 3496).

[3] = tested on: M5076 reticulum cell sarcoma; test: M5076 reticulum cell sarcoma, sc implanted; format: in vivo, C57BL/6 mice; settings: 48 mg/kg/injection, q2d × 5, iv, 100% DMSO
Method: as §1, §2
Compound III was also evaluated against the M5076 reticulum cell sarcoma implanted sc. When administered iv at a level of 48 mg/kg per injection in 100% DMSO every other day for five days, compound III cured 6 out of 8 mice and consequently, no median time (T-C value) to reach 1 gram size tumors was expressed for this group. Tumor growth in mice receiving only 100% DMSO was indistinguishable from that of untreated control animals. 1-(2-Chloroethyl)-3-(4-methylcyclohexyl)-1-nitrosourea (MeCCNU) and BCNU were included in this experiment for comparison. The former achieved a maximum %T/C of 128 and a delay in tumor growth of 33.5 days at 16 mg/kg per injection administered iv every fourth day for three total injections, while BCNU, administered iv on the same treatment schedule, produced a %T/C in excess of 157, with 2 out of 8 cures, and a T-C of >62 days (data not shown).

[4] = experiment a, 50 mg/kg/injection, q4d × 3, iv, 10% DMSO in saline
[5] = experiment b, 64 mg/kg/injection, q3d × 4, iv, 100% DMSO

SMILES: CS(=O)(=O)N(CCCl)N(C(=O)NCCCl)S(C)(=O)=O [Compound III, 1,2-bis(methylsulfonyl)-1-(2-chloroethyl)-2-(2-chloroethyl)aminocarbonylhydrazine]
- %T/C (median survival time) [1]: 267%
- lethality (in words) ([2]; 48 mg/kg per injection, q3d × 4, iv, 10% DMSO in saline): excessively lethal
- antitumor effect versus 10% DMSO formulation, statistics (in words) ([2]; 64 mg/kg in 100% DMSO vs best T-C in 10% DMSO in saline, p<0.01): statistically superior (p<0.01)
- treatment-associated lethalities (in words) ([2]; 64 mg/kg per injection, q3d × 4, iv, 100% DMSO): without causing any treatment-associated lethalities
- %T/C (median survival time) [2, 4]: 115%
- T-C, delay in tumor growth [2, 4]: 8.3 days
- activity assessment of %T/C (in words) ([2]; experiment a, 50 mg/kg/injection, q4d × 3, iv, criterion T/C ≥125%): not considered to be an active result
- %T/C (median survival time), maximum ([2]; experiment b, 24 mg/kg/injection, q3d × 4, iv, 10% DMSO in saline): 143%
- T-C, maximum delay in tumor growth ([2]; experiment b, 32 mg/kg/injection, q3d × 4, iv, 10% DMSO in saline): 9.3 days
- %T/C (median survival time), maximum [2, 5]: 145%
- T-C, delay in tumor growth [2, 5]: 17.8 days
- %T/C (median survival time) [3]: > 157%
- Cures/Total [3]: 6/8 and 6 out of 8
